Test results: patent US9096524B2, “Anthelmintic agents and their use” (Intervet International B.V., priority 2009, dated 2015)
Like-named read-outs stand apart in the source and are kept apart here.

Tested on: A. galli (intestinal roundworm of chicken) larval stage 3; O. dentatum (nodular worm of swine) larval stages 3 and 4
Assay: Activity against Ascaridia galli and Oesophagostomum dentatum larvae in vitro (minimum effective concentration)
Format: cell-based
[1] = read-out: MEC (minimum effective concentration) against one or more of the tested nematodes, in vitro, one or more of A. galli L3, O. dentatum L3, L4, threshold 1 μM
[2] = read-out: MEC (minimum effective concentration) against one or more of the tested nematodes, in vitro, one or more of A. galli L3, O. dentatum L3, L4, threshold 7 μM
[3] = read-out: MEC (minimum effective concentration) against two or more of the tested nematodes, in vitro, two or more of A. galli L3, O. dentatum L3, L4, threshold 1 μM
[4] = in vitro, one or more of A. galli L3, O. dentatum L3, L4, threshold 1 μM, read-out: MEC (minimum effective concentration) against one or more of the tested nematodes
[5] = in vitro, two or more of A. galli L3, O. dentatum L3, L4, threshold 1 μM, read-out: MEC (minimum effective concentration) against two or more of the tested nematodes
[6] = in vitro, one or more of A. galli L3, O. dentatum L3, L4, threshold 7 μM, read-out: MEC (minimum effective concentration) against one or more of the tested nematodes

Compound	minimal effective concentration [4] [µM]	minimal effective concentration [5] [µM]	also measured
O=C(CCC1CCN(c2ccc(C(F)(F)F)cc2)CC1)N1CCC(Nc2ccc([N+](=O)[O-])c(C(F)(F)F)c2)CC1 [Example 141, 1-[4-(4-nitro-3-trifluoromethyl-phenylamino)-piperidin-1-yl]-3-[1-(4-trifluoromethyl-phenyl)-piperidin-4-yl]-propan-1-one]	–	–	minimal effective concentration [1]: < 1 µM; minimal effective concentration [2]: < 7 µM; minimal effective concentration [3]: < 1 µM
CCOc1cc(OC2CCN(C(=O)CCN3CCC(c4ccc(C(C)(C)C)cc4)CC3)CC2)ccc1[N+](=O)[O-] [Example 509]	< 1	–	–
Cc1ccc(N2CCN(CCS(=O)(=O)N3CCC(Nc4ccc([N+](=O)[O-])c(C(F)(F)F)c4)CC3)CC2)cc1 [Example 243]	–	< 1	–
CC(C)(C)c1ccc(N2CCN(CCCC(=O)N3CCC(Nc4ccnc(C(F)(F)F)c4)CC3)CC2)cc1 [Example 591]	–	< 1	–
CC(C)COc1cc(NC2CCN(C(=O)CCN3CCN(c4ccc(C(F)(F)F)cc4)CC3)CC2)ccc1[N+](=O)[O-] [Example 459]	< 1	–	minimal effective concentration [6]: < 7 µM
CC(C)(C)c1ccc(N2CCN(CCC(=O)N3CCC(Nc4ccc([N+](=O)[O-])nc4)CC3)CC2)cc1 [Example 550]	< 1	–	–
O=C(CCC1CCN(c2ccc(Cl)cc2)CC1)N1CCC(Nc2ccc([N+](=O)[O-])c(C(F)(F)F)c2)CC1 [Example 144, 3-[1-(4-chloro-phenyl)-piperidin-4-yl]-1-[4-(4-nitro-3-trifluoromethyl-phenylamino)-piperidin-1-yl]-propan-1-one]	–	–	minimal effective concentration [1]: < 1 µM; minimal effective concentration [2]: < 7 µM; minimal effective concentration [3]: < 1 µM
CCOc1cc(NC2CCN(C(=O)CCN3CCN(c4ccc(Cl)cc4)CC3)CC2)ccc1[N+](=O)[O-] [Example 405]	–	–	minimal effective concentration [6]: < 7 µM
N#Cc1ccc(NC2CCN(C(=O)CCCN3CCN(c4ccc(C(F)(F)F)cc4)CC3)CC2)cc1 [Example 83, 4-(1-{4-[4-(4-trifluoromethyl-phenyl)-piperazin-1-yl]-butyryl}-piperidin-4-ylamino)-benzonitrile]	–	–	minimal effective concentration [1]: < 1 µM; minimal effective concentration [2]: < 7 µM; minimal effective concentration [3]: < 1 µM
O=C(CCCN1CCN(c2ccc(C(F)(F)F)cc2)CC1)N1CCCN(c2ccc(SC(F)(F)F)cc2)CC1 [Example 1027]	< 1	–	–
N#Cc1ccc(N2CCN(C(=O)COC3CCN(c4ccc([N+](=O)[O-])c(C(F)(F)F)c4)CC3)CC2)cc1 [Example 180]	< 1	–	–
O=C(CCN1CCN(c2ccccc2)CC1)N1CCC(Nc2ccc([N+](=O)[O-])c(C(F)(F)F)c2)CC1 [Example 171]	< 1	< 1	–
O=C(CCCN1CCN(c2nnc(C(F)(F)F)s2)CC1)N1CC[C@H](Nc2ccc([N+](=O)[O-])c(C(F)(F)F)c2)C1 [Example 749]	< 1	–	–
COc1ccc(C2CCN(CCC(=O)N3CCC(Oc4ccc([N+](=O)[O-])c(OC)c4)CC3)CC2)cc1 [Example 484]	< 1	–	–
COc1cc(OC2CCN(C(=O)CCN3CCN(c4ccc(F)cc4F)CC3)CC2)ccc1[N+](=O)[O-] [Example 477]	–	–	minimal effective concentration [6]: < 7 µM
COc1ccc(C2CCN(CCC(=O)N3CCC(Oc4ccc([N+](=O)[O-])c(C(F)(F)F)c4)CC3)CC2)cc1 [Example 435]	–	< 1	–
COc1ccc(NC2CCN(C(=O)CCCN3CCN(c4ccc(C(F)(F)F)cc4)CC3)CC2)cc1 [Example 270]	–	< 1	–
O=C(CCN1CCC(c2ccc(-c3ccccc3)cc2)CC1)N1CCC(Oc2ccc([N+](=O)[O-])c(C(F)(F)F)c2)CC1 [Example 442]	–	–	minimal effective concentration [6]: < 7 µM
COc1ccc(N2CCN(CCCC(=O)N3CC[C@H](Nc4ccc([N+](=O)[O-])c(C(F)(F)F)c4)C3)CC2)cn1 [Example 746]	< 1	–	–
CC(C)(C)c1ccc(N2CCN(CCCC(=O)N3CCC(Oc4ccc([N+](=O)[O-])c(C(F)(F)F)c4)CC3)CC2)cc1 [Example 258]	< 1	–	–
COc1cc(NC2CCN(C(=O)CCN3CCN(c4ccc(C(F)(F)F)cc4)CC3)CC2)ccc1[N+](=O)[O-] [Example 382]	–	< 1	minimal effective concentration [6]: < 7 µM
O=C(CC(=O)N1CCN(c2cccc(OC(F)(F)F)c2)CC1)N1CCC(Nc2ccc([N+](=O)[O-])c(C(F)(F)F)c2)CC1 [Example 210]	< 1	–	–
N#Cc1ccc(NC2CCN(C(=O)CCN3CCCN(c4ccc(Cl)cc4)CC3)CC2)cc1C(F)(F)F [Example 770]	–	–	minimal effective concentration [3]: < 1 µM

Compound	minimal effective concentration [4] [µM]	minimal effective concentration [5] [µM]	also measured
N#Cc1ccc(NC2CCN(C(=O)CCCC3CCN(c4ccc(Cl)cc4)CC3)CC2)cc1C(F)(F)F [Example 754]	–	–	minimal effective concentration [3]: < 1 µM
O=C(CCN1CCN(c2cccc(Cl)c2)CC1)NC1CCN(c2ccc(C(F)(F)F)cn2)CC1 [Example 640]	< 1	–	–
N#Cc1ccc(N2CCC(NC(=O)CCCN3CCN(c4ccc(C(F)(F)F)cc4)CC3)CC2)cc1C(F)(F)F [Example 619]	–	–	minimal effective concentration [3]: < 1 µM
O=C(CCCN1CCN(c2ccc(C(F)(F)F)cc2)CC1)N1CCC(Nc2ccc([N+](=O)[O-])cn2)CC1 [Example 98, 1-[4-(5-nitro-pyridin-2-ylamino)-piperidin-1-yl]-4-[4-(4-trifluoromethyl-phenyl)-piperazin-1-yl]-butan-1-one]	–	–	minimal effective concentration [1]: < 1 µM; minimal effective concentration [2]: < 7 µM; minimal effective concentration [3]: < 1 µM
CCOc1cc(NC2CCN(C(=O)CCN3CCN(c4ccc(C(F)(F)F)cc4)CC3)CC2)ccc1[N+](=O)[O-] [Example 402]	< 1	< 1	minimal effective concentration [6]: < 7 µM
O=C(CCN1CCN(c2ccc(Cl)cn2)CC1)N1CC[C@@H](Nc2ccc([N+](=O)[O-])c(C(F)(F)F)c2)C1 [Example 795]	< 1	–	–
O=[N+]([O-])c1ccc(OC2CCN(C(=S)CCN3CCC(OCc4ccc(C(F)(F)F)cc4)CC3)CC2)cc1C(F)(F)F [Example 695]	< 1	< 1	–
O=C(CCN1CCN(c2ccc(Cl)cc2)CC1)N1CCC(Oc2ccc([N+](=O)[O-])c(C(F)(F)F)c2)CC1 [Example 433]	< 1	–	–
O=C(CCN1CCN(c2nnc(C(F)(F)F)s2)CC1)N1CC[C@H](Nc2ccc([N+](=O)[O-])c(C(F)(F)F)c2)C1 [Example 720]	< 1	–	–
O=C([C@@H]1CCC[C@H](C(=O)N2CCC(Nc3ccc([N+](=O)[O-])c(C(F)(F)F)c3)CC2)C1)N1CCN(c2ccccc2)CC1 [Example 227]	–	< 1	–
O=C(CCCN1CCN(c2ccc(C(F)(F)F)cc2)CC1)N1CC[C@H](Nc2ccc([N+](=O)[O-])c(C(F)(F)F)c2)C1 [Example 730]	< 1	< 1	–
O=C(CCCN1CCN(c2ccc(C(F)(F)F)cc2)CC1)N1CCC(Nc2ccc([N+](=O)[O-])nc2)CC1 [Example 95, 1-[4-(6-nitro-pyridin-3-ylamino)-piperidin-1-yl]-4-[4-(4-trifluoromethyl-phenyl)-piperazin-1-yl]-butan-1-one]	–	–	minimal effective concentration [1]: < 1 µM; minimal effective concentration [2]: < 7 µM; minimal effective concentration [3]: < 1 µM
O=C(CCCN1CCN(c2ccc(Cl)cc2)CC1)N1CCC(Nc2ccc(Cl)c(SC(F)(F)F)c2)CC1 [Example 359]	< 1	–	–
Cn1nnc(-c2ccc(NC3CCN(C(=O)CCN4CCN(c5ccc(Cl)cc5)CC4)CC3)cc2)n1 [Example 445]	< 1	< 1	minimal effective concentration [6]: < 7 µM
CC(C)(C)c1ccc(N2CCN(CCCC(=O)N3CC[C@@H](Nc4ccc([N+](=O)[O-])c(C(F)(F)F)c4)C3)CC2)cc1 [Example 168, 4-[4-(4-tert-butyl-phenyl)-piperazin-1-yl]-1-[(R)-3-(4-nitro-3-trifluoromethyl-phenylamino)-pyrrolidin-1-yl]-butan-1-one]	–	–	minimal effective concentration [1]: < 1 µM; minimal effective concentration [2]: < 7 µM; minimal effective concentration [3]: < 1 µM
N#Cc1ccc(N2CCC(NC(=S)CCCN3CCN(c4ccc(C(F)(F)F)cc4)CC3)CC2)cc1C(F)(F)F [Example 662]	–	< 1	–
CC(C)COc1cc(OC2CCN(C(=O)CCN3CCN(c4ccc(F)cc4F)CC3)CC2)ccc1[N+](=O)[O-] [Example 520]	–	–	minimal effective concentration [6]: < 7 µM
COc1ccc(N2CCN(CCC(=O)N3CCCN(c4ccc(SC(F)(F)F)cc4)CC3)CC2)cc1 [Example 1020]	< 1	–	–
O=C(CCCN1CCN(c2ccc(C(F)(F)F)cc2)CC1)N1CCC(Oc2ccc([N+](=O)[O-])c(C(F)(F)F)c2)CC1 [Example 79, 1-[4-(4-nitro-3-trifluoromethyl-phenoxy)-piperidin-1-yl]-4-[4-(4-trifluoromethyl-phenyl)-piperazin-1-yl]-butan-1-one]	–	–	minimal effective concentration [1]: < 1 µM; minimal effective concentration [2]: < 7 µM; minimal effective concentration [3]: < 1 µM
O=C(CCN1CCN(c2ccc(C(F)(F)F)cc2)CC1)NC1CCN(c2ccc([N+](=O)[O-])c(C(F)(F)F)c2)CC1 [Example 596]	< 1	–	–
CC(C)(C)c1ccc(N2CCN(CCC(=O)N3CCC(Nc4ccc(S(=O)(=O)c5ccc(F)cc5)cc4)CC3)CC2)cc1 [Example 294]	–	< 1	–
CC(N1CCN(c2ccc(Cl)cc2)CC1)C(C)(C)C(=O)N1CCC(Nc2ccc([N+](=O)[O-])c(C(F)(F)F)c2)CC1 (centres unmarked) [Example 586]	–	< 1	–
